Common to all, as to assay: NCI anticancer screen, dose series, 48 h
The subject of assay [1] is CAKI-1 renal.
The subject of assay [2] is HOP-62 NSCLC.
The subject of assay [3] is HS 578T breast.
Assay [4] concerns K-562 leukemia.
For assay [5], the system named is MCF7 breast.
For assay [6], the system named is RXF 393 renal.
Assay [7] relates to SK-OV-3 ovarian.
Assay [8] deals with SR leukemia.
Assay [9] has as its system U251 CNS.
Assay [10] relates to UACC-62 melanoma.

The values that follow come from PubChem BioAssay (NCI).

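Growth conditions: 96-well plates. Treatment: test compound, 48 hours, 5 concentrations. Analysis: linear interpolation between bracketing concentrations; unreached endpoints set to highest concentration. GI50: concentration for 50% inhibition of growth. TGI denotes the concentration required for complete inhibition of growth.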

Consider `NS(=O)(=O)c1ccc(NC(NC(=O)C(C(F)(F)F)C(F)(F)F)(C(F)(F)F)C(F)(F)F)cc1`, for which the TGI in [1], in assay [2], in assay [3], in [4], in [5] and in assay [6] was greater than 100 µM throughout. The TGI in [7], in assay [8], in assay [9] and in assay [10] was greater than 100 µM in each case.
Take `COc1ccc(N=NC(=Nc2ccc(F)cc2)c2ccc(N(CCC#N)CCC#N)cc2)cc1`: the TGI in [1] is greater than 100 µM; in assay [2] it was greater than 100 µM; in assay [3], 86.4 µM; in assay [4] it was greater than 100 µM; in assay [5], greater than 100 µM; in assay [6] it was 90 µM. Also, the TGI is greater than 100 µM in assay [7], greater than 100 µM in [8], 84.4 µM in assay [9] and 57.3 µM in assay [10].
`CCOC(=O)C1CN(C2CC2)CCC1=O` (configuration not stated): the TGI in [1], in [2], in [3], in assay [4], in assay [5] and in [6] was greater than 100 µM throughout. In addition, the TGI in assay [7], in assay [8], in assay [9] and in assay [10] was greater than 100 µM in each case.
Turning to `COC(=O)C1=C(C)NC(C)=C([N+](=O)[O-])C1c1cccc(N=O)c1` (configuration not stated), the TGI in [1] is 20.6 µM; in assay [2], 34.5 µM; in [3], 39.1 µM; in [4], greater than 100 µM; in [5], 38.5 µM; in [6], 27.6 µM. In addition, the TGI was 46.6 µM in assay [7], greater than 100 µM in assay [8], 32 µM in assay [9] and 29 µM in assay [10].
Consider `C=C(C)[C@@]1(O[Si](C)(C)C)CCCC[C@@H]1CC(Sc1ccccc1)Sc1ccccc1`, for which the TGI in [1] is 25.8 µM; in assay [2], 27.5 µM; in assay [3], 29.7 µM; in assay [4], 41.2 µM; in assay [5] it was 27.6 µM; in assay [6], 24.6 µM. The TGI in assay [7] came to 39.7 µM; in assay [8], 31.5 µM; in [9], 30.7 µM; in [10] it was 26.9 µM.
With `c1ccc(C2=Nn3c(CCCCCCCCc4nnc5n4N=C(c4ccccc4)CS5)nnc3SC2)cc1`, the TGI was greater than 100 µM in assay [1]; 44 µM in assay [2]; greater than 100 µM in assay [3]; greater than 79.7 µM in [4]; greater than 100 µM in assay [5]; 67.5 µM in assay [6]. In addition, the TGI in assay [7] was 85.6 µM; in assay [8], greater than 100 µM; in assay [9], 36.8 µM; in assay [10] it was greater than 100 µM.
With `COC(=O)c1cc(C)ccc1CC(Cc1ccc(C)cc1)C(=O)OC` (configuration not stated), the TGI is greater than 100 µM in assay [1]; greater than 100 µM in assay [2]; greater than 100 µM in assay [3]; greater than 38.7 µM in assay [4]; greater than 31.6 µM in [5]; 11.5 µM in assay [6]. The TGI was 67.2 µM in assay [7], greater than 100 µM in assay [8], greater than 100 µM in [9] and greater than 100 µM in [10].
Regarding `Cc1c2ccncc2c(C)c2c1[nH]c1ccccc12`, the TGI in [1] was 3.81 µM; in assay [2], 3.13 µM; in assay [3] it was 5.45 µM; in [4], 5.09 µM; in assay [5], 2.54 µM; in [6] it was 0.595 µM. The TGI is 4.44 µM in assay [7], greater than 100 µM in assay [8], 2.08 µM in assay [9] and 6.02 µM in [10]. The GI50 is 1.37 µM in assay [3] and 0.819 µM in assay [8].
`COC(=O)c1cc2c(cc1CC(Cc1ccc3c(c1)CCC3)C(=O)OC)CCC2` (configuration not stated): the TGI in assay [1] is greater than 100 µM; in [2], greater than 100 µM; in [3], greater than 100 µM; in [4], greater than 100 µM; in assay [5], 92.7 µM; in [6], 65.3 µM. In addition, the TGI is greater than 100 µM in [7], 57.4 µM in assay [8], greater than 100 µM in assay [9] and greater than 100 µM in [10].
For `O=C(O)c1c2c(cc3c1CC1(Cc4ccccc4C1=O)C3)CCC2` (configuration not stated), the TGI was greater than 100 µM in assay [1]; greater than 100 µM in assay [2]; greater than 100 µM in assay [3]; 33.6 µM in [4]; greater than 100 µM in assay [5]; greater than 100 µM in assay [6]. Besides, the TGI was greater than 100 µM in [7], 9.56 µM in [8], greater than 100 µM in assay [9] and greater than 100 µM in [10].
On to `CC(C)CCn1nc(N)c2nc3ccccc3nc21`, for which the TGI in assay [1], in assay [2], in assay [3], in assay [4], in assay [5] and in assay [6] was greater than 100 µM throughout. Further, the TGI in assay [7], in [8], in assay [9] and in assay [10] was greater than 100 µM in each case.
Regarding `COc1cc2c(cc1OC)C13CC[N+]4(C)CC5=CCOC6CC(=O)N2C1C6C5CC34[O-]` (configuration not stated), the TGI in assay [1], in [2], in assay [3], in [4], in assay [5] and in assay [6] was greater than 100 µM in each case. Besides, the TGI in assay [7], in assay [8], in assay [9] and in assay [10] was greater than 100 µM in each case.
As to `COc1cc(OCc2ccc3nc(OC)c(OC)nc3c2)cc(OC)c1OC`, the TGI in [1], in assay [2], in assay [3], in [4], in assay [5] and in assay [6] was greater than 10 µM each time. In addition, the TGI in [7], in assay [8], in assay [9] and in assay [10] was greater than 10 µM in each case.
Take `N#CCCN(CCC#N)c1ccc(/C=C2\SC(=S)NC2=O)cc1Br`: the TGI in assay [1] is greater than 100 µM; in assay [2] it was 40.4 µM; in [3], 27.1 µM; in assay [4], greater than 100 µM; in [5], greater than 100 µM; in assay [6] it was greater than 100 µM. The TGI in assay [7] is greater than 100 µM; in assay [8], greater than 100 µM; in assay [9], 35.1 µM; in [10] it was greater than 100 µM.
As for `N#Cc1c(C#N)c(-c2ccccc2)n(-c2ccccc2)c1N`, the TGI in assay [1], in assay [2], in assay [3], in assay [4], in [5] and in assay [6] was greater than 100 µM each time. Besides, the TGI in [7], in assay [8], in assay [9] and in assay [10] was greater than 100 µM throughout.
As to `Cc1cc(/N=C/c2ccc(C#N)cc2)n(-c2ccccc2)n1`, the TGI in assay [1], in [2], in assay [3], in [4], in [5] and in assay [6] was greater than 100 µM throughout. The TGI in [7], in assay [8], in [9] and in [10] was greater than 100 µM each time.
Take `COc1c(O)c(O)cc2c1-c1ccc(OC)c(=O)cc1C(NC(C)=O)CC2` (configuration not stated): the TGI in [1] is 95.6 µM; in [2], 87.1 µM; in assay [3] it was greater than 24.9 µM; in [4] it was 19.2 µM; in assay [5], 11.9 µM; in assay [6] it was greater than 41.2 µM. In addition, the TGI was 32.9 µM in assay [7], greater than 100 µM in assay [8], 28.9 µM in assay [9] and 24.8 µM in assay [10].
As for `COc1ccc(N=Nc2c3c(c(O)c4ccccc24)CCC(C)(C)O3)cc1`, the TGI is 72.3 µM in assay [1]; 52.9 µM in [2]; 66.7 µM in [3]; greater than 100 µM in assay [4]; 29.5 µM in assay [5]; 34 µM in assay [6]. For the same compound, the TGI was greater than 100 µM in [7], 39.1 µM in assay [8], 37.9 µM in [9] and 28.6 µM in [10].
On to `Cn1ccnc1Sc1ccc(C=Nc2ccc3nc(SCC(=O)NC4CCCCC4)sc3c2)cc1[N+](=O)[O-]`, for which the TGI in assay [1] was greater than 100 µM; in assay [2] it was greater than 100 µM; in assay [3] it was 96.3 µM; in [4], greater than 100 µM; in [5] it was greater than 100 µM; in assay [6] it was 23.4 µM. Further, the TGI was 58.4 µM in assay [7], greater than 100 µM in assay [8], 33.9 µM in assay [9] and greater than 100 µM in [10].
As for `CC1=C[C@@H](C)C[C@]2(C)CC[C@H](O2)[C@]23CC[C@](C(=O)O)(C[C@H](O2)[C@@H]2O[C@@](C)(CC2=O)[C@@H](O)[C@H]2CC[C@@]4(CCC[C@@H](O4)[C@H](C)C(=O)O[C@H]4C[C@H]([C@]5(O)OCC[C@H](C)[C@@H]5O)O[C@H]4C=C1)O2)O3`, the TGI in assay [1] was greater than 10 µM; in [2], greater than 10 µM; in [3], greater than 5.94 µM; in assay [4], greater than 10 µM; in assay [5] it was greater than 10 µM; in assay [6], greater than 10 µM. For the same compound, the TGI in assay [7], in assay [8], in assay [9] and in [10] was greater than 10 µM throughout.
Take `CCc1nc2cc3cccnc3c(Cl)c2[nH]c1=O`: the TGI in assay [1] is greater than 100 µM; in assay [2] it was greater than 100 µM; in assay [3] it was greater than 100 µM; in assay [4], greater than 100 µM; in assay [5], greater than 100 µM; in assay [6], 91.1 µM. Moreover, the TGI in [7], in assay [8], in assay [9] and in [10] was greater than 100 µM in each case.
For `O=C(CCc1cccc(O)c1)NCCCNC(=O)CCc1cccc(O)c1`, the TGI in assay [1], in assay [2], in assay [3], in [4], in assay [5] and in assay [6] was greater than 100 µM throughout. Further, the TGI in assay [7], in [8], in [9] and in [10] was greater than 100 µM each time.
